Tested on: A/Paris/1170/2007 (H1N1, Y274)
Test: microbe, parasite or virus in culture
Type: cell-based
Conditions: Influenza A virus, H1N1, 72 h, read-out: EC50, 50% reduction of the average plaque diameter

SMILES	EC50 [µM]
CC(=O)N[C@H]1[C@H]([C@H](O)[C@H](O)CO)OC(C(=O)O)=C[C@@H]1O [Neu5Ac2en, reference compound]	8
C=CCC1=C(C(=O)O)O[C@@H]([C@H](O)[C@H](O)CO)[C@H](NC(C)=O)[C@H]1O [Compound 7, 5-Acetamido-2,6-anhydro-3,5-dideoxy-3-C-(prop-2′-enyl)-D-glycero-D-galacto-non-2-en-onic acid]	2200
CC(=O)NC1C(O)C(CC=Cc2ccc(C)cc2)=C(C(=O)O)OC1C(O)C(O)CO (stereo not drawn) [Compound 9d]	40

Source: US20120202877A1 (priority 2009, published 2012)
